Measurements: US20250304563A1, “ACTIVATORS OF EFFECTOR T CELLS” (Orum Therapeutics, Inc., priority 2022, published 2025)
Blank lines part the entries; values can stand above or below the compound they belong to.

Experiments:
[1] = target: Cbl-b (36-427 aa truncated form, N-terminus Avi-tag) (Homo sapiens (Human), UniProt Q13191); assay: Cbl-b binding: TR-FRET displacement of BODIPY-FL probe
How it was run: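 Avi-tagged Cbl-b 36-427 preincubated 1 h at RT with streptavidin-terbium in HEPES pH 7.5/NaCl/Triton/BSA/TCEP buffer, then 1 uM BODIPY-FL inhibitor probe plus compound added for 1 h. Probe displacement read by TR-FRET; IC50 fitted.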

Human primary T cells [2] = assay: T cell activation: secreted IFN-y; type: cell-based; conditions: 48 hours, fold over background normalized to Compound 141A; for IFN-y 1 nM: 1 nM compound; for IFN-y 10 nM: 10 nM compound; for IFN-y 100 nM: 100 nM compound
How it was run: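 Negatively selected primary human T cells (1×10^5/well, serum-free XVivo-15) on plates coated with 10 μg/mL anti-CD3 were exposed to serial compound dilutions for 48 h at 37 °C. Secreted IFN-γ was measured by cytometric bead array and expressed as fold over anti-CD3/CD28 background, normalized to a reference compound and binned into ranges A–D.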

Human primary T cells [3] = assay: T cell activation: secreted IL-2; type: cell-based; conditions: 48 hours, fold over background normalized to Compound 141A; for IL-2 1 nM: 1 nM compound; for IL-2 10 nM: 10 nM compound; for IL-2 100 nM: 100 nM compound
How it was run: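 Negatively selected human primary T cells on plate-bound anti-CD3 (OKT3) in serum-free medium, treated 48 h at 37° C. with serial compound dilutions in duplicate. Secreted IL-2 by bead-based cytometric assay, expressed as fold over anti-CD3/CD28 background normalized to a reference compound, then binned into ranges.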

Human primary T cells [4] = assay: T cell activation: CD69 surface expression by flow cytometry; type: cell-based; conditions: fold over anti-CD3 stimulated background normalized to Compound 141A; for CD69 1 nM: 1 nM compound; for CD69 10 nM: 10 nM compound; for CD69 100 nM: 100 nM compound
How it was run: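 Negatively selected human primary T cells (1×10^5/well, XVivo-15) were captured on plates coated with 10 μg/mL anti-CD3 (OKT3). They were exposed to serially diluted compounds in duplicate for 48 h at 37° C. CD69 was read by flow cytometry as fold over anti-CD3-only background, normalized to Compound 141A and binned into ranges.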

Sequence of Cbl-b (36-427 aa truncated form, N-terminus Avi-tag) (Q13191 36-427): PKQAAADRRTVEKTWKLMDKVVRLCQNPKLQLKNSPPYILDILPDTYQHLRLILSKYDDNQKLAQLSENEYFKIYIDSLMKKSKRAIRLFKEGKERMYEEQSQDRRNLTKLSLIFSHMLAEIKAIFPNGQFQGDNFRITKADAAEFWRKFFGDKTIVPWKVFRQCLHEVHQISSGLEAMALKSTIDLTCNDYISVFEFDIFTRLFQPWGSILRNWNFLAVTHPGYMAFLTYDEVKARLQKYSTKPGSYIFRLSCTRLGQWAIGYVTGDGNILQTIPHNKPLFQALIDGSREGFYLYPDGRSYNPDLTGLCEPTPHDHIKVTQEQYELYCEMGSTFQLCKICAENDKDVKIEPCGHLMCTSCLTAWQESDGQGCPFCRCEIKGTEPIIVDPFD

Structure (SMILES): C[C@H]1CCCN(Cc2cc3c(c(C(F)(F)F)c2)CN(c2cc(C4(Cc5nncn5C)COC4)cc(NCc4c[nH]nn4)n2)C3=O)C1.O=C(O)C(F)(F)F [Compound 182, (S)-2-(6-(((1H-1,2,3-triazol-4-yl)methyl)amino)-4-(3-((4-methyl-4H-1,2,4-triazol-3-yl)methyl)oxetan-3-yl)pyridin-2-yl)-6-((3-methylpiperidin-1-yl)methyl)-4-(trifluoromethyl)isoindolin-1-one; trifluoroacetic acid]
IC50 [1]: 5.01 to 20 nM | IFN-y 1 nM (Human primary T cells [2]): C (values between 0.10 and 0.30: range “C”) | IFN-y 10 nM (Human primary T cells [2]): C (values between 0.10 and 0.30: range “C”) | IFN-y 100 nM (Human primary T cells [2]): B (values between 0.31 and 1.00: range “B;”) | IL-2 1 nM (Human primary T cells [3]): D (values between 0.01 and 0.09: range “D.”) | IL-2 10 nM (Human primary T cells [3]): D (values between 0.01 and 0.09: range “D.”) | IL-2 100 nM (Human primary T cells [3]): D (values between 0.01 and 0.09: range “D.”) | CD69 1 nM (Human primary T cells [4]): C (values between 0.30 and 0.60: range “C”) | CD69 10 nM (Human primary T cells [4]): C (values between 0.30 and 0.60: range “C”) | CD69 100 nM (Human primary T cells [4]): C (values between 0.30 and 0.60: range “C”)

Structure (SMILES): Cn1cnnc1CC1(c2cc(NCCC#N)nc(N3Cc4c(cc(CN5CCN(c6nccs6)CC5)cc4C(F)(F)F)C3=O)c2)COC1.O=C(O)C(F)(F)F [Compound 186, 3-((4-(3-((4-methyl-4H-1,2,4-triazol-3-yl)methyl)oxetan-3-yl)-6-(1-oxo-6-((4-(thiazol-2-yl)piperazin-1-yl)methyl)-4-(trifluoromethyl)isoindolin-2-yl)pyridin-2-yl)amino)propanenitrile; trifluoroacetic acid]
IC50 [1]: 5.01 to 20 nM | IFN-y 1 nM (Human primary T cells [2]): C (values between 0.10 and 0.30: range “C”) | IFN-y 10 nM (Human primary T cells [2]): C (values between 0.10 and 0.30: range “C”) | IFN-y 100 nM (Human primary T cells [2]): B (values between 0.31 and 1.00: range “B;”) | IL-2 1 nM (Human primary T cells [3]): D (values between 0.01 and 0.09: range “D.”) | IL-2 10 nM (Human primary T cells [3]): D (values between 0.01 and 0.09: range “D.”) | IL-2 100 nM (Human primary T cells [3]): D (values between 0.01 and 0.09: range “D.”) | CD69 1 nM (Human primary T cells [4]): C (values between 0.30 and 0.60: range “C”) | CD69 10 nM (Human primary T cells [4]): C (values between 0.30 and 0.60: range “C”) | CD69 100 nM (Human primary T cells [4]): C (values between 0.30 and 0.60: range “C”)

Structure (SMILES): C[C@H]1CCCN(Cc2cc3c(c(C(F)(F)F)c2)CN(c2cc(C4(Cc5nncn5C)COC4)cc(NC4CC(C#N)C4)n2)C3=O)C1.O=C(O)C(F)(F)F (stereo partly drawn) [Compound 190, (S)-3-((4-(3-((4-methyl-4H-1,2,4-triazol-3-yl)methyl)oxetan-3-yl)-6-(6-((3-methylpiperidin-1-yl)methyl)-1-oxo-4-(trifluoromethyl)isoindolin-2-yl)pyridin-2-yl)amino)cyclobutane-1-carbonitrile; trifluoroacetic acid]
IC50 [1]: 5.01 to 20 nM | IFN-y 1 nM (Human primary T cells [2]): C (values between 0.10 and 0.30: range “C”) | IFN-y 10 nM (Human primary T cells [2]): B (values between 0.31 and 1.00: range “B;”) | IFN-y 100 nM (Human primary T cells [2]): B (values between 0.31 and 1.00: range “B;”) | IL-2 1 nM (Human primary T cells [3]): C (values between 0.10 and 0.30: range “C”) | IL-2 10 nM (Human primary T cells [3]): C (values between 0.10 and 0.30: range “C”) | IL-2 100 nM (Human primary T cells [3]): C (values between 0.10 and 0.30: range “C”) | CD69 1 nM (Human primary T cells [4]): C (values between 0.30 and 0.60: range “C”) | CD69 10 nM (Human primary T cells [4]): C (values between 0.30 and 0.60: range “C”) | CD69 100 nM (Human primary T cells [4]): B (values between 0.61 and 0.80: range “B;”)

Structure (SMILES): Cn1cnnc1CC1(c2cccc(NC(=O)c3cc(CN4CC[C@H](OCCCCCCNC(=O)CCN5C(=O)C=CC5=O)C4)cc(C4CC4)n3)c2)COC1 [Compound 200]
IC50 [1]: 5.01 to 20 nM | IFN-y 1 nM (Human primary T cells [2]): C (values between 0.10 and 0.30: range “C”) | IFN-y 10 nM (Human primary T cells [2]): C (values between 0.10 and 0.30: range “C”) | IFN-y 100 nM (Human primary T cells [2]): C (values between 0.10 and 0.30: range “C”) | IL-2 1 nM (Human primary T cells [3]): C (values between 0.10 and 0.30: range “C”) | IL-2 10 nM (Human primary T cells [3]): C (values between 0.10 and 0.30: range “C”) | IL-2 100 nM (Human primary T cells [3]): C (values between 0.10 and 0.30: range “C”) | CD69 10 nM (Human primary T cells [4]): C (values between 0.30 and 0.60: range “C”) | CD69 100 nM (Human primary T cells [4]): C (values between 0.30 and 0.60: range “C”)

Second part, led by results:

IC50 [1]: 1 to 5 nM
Structure (SMILES): CCNc1cc(C2(Cc3nncn3C)COC2)cc(N2Cc3c(SC)cc(CN4CCCCC4)cc3C2=O)n1 [Compound 175, 2-[6-(ethylamino)-4-{3-[(4-methyl-1,2,4-triazol-3-yl)methyl]oxetan-3-yl}pyridin-2-yl]-4-(methylsulfanyl)-6-(piperidin-1-ylmethyl)-3H-isoindol-1-one]
IFN-y 1 nM (Human primary T cells [2]): C (values between 0.10 and 0.30: range “C”) | IFN-y 10 nM (Human primary T cells [2]): B (values between 0.31 and 1.00: range “B;”) | IFN-y 100 nM (Human primary T cells [2]): B (values between 0.31 and 1.00: range “B;”) | IL-2 1 nM (Human primary T cells [3]): D (values between 0.01 and 0.09: range “D.”) | IL-2 10 nM (Human primary T cells [3]): D (values between 0.01 and 0.09: range “D.”) | IL-2 100 nM (Human primary T cells [3]): C (values between 0.10 and 0.30: range “C”) | CD69 1 nM (Human primary T cells [4]): C (values between 0.30 and 0.60: range “C”) | CD69 10 nM (Human primary T cells [4]): C (values between 0.30 and 0.60: range “C”) | CD69 100 nM (Human primary T cells [4]): B (values between 0.61 and 0.80: range “B;”)

IC50 [1]: 5.01 to 20 nM
Structure (SMILES): CCNc1cc([C@]2(c3nncn3C)C[C@H](C)C2)cc(N2Cc3ncc(CN4CCC[C@H](C)C4)cc3C2=O)n1 [Compound 176, 6-[6-(ethylamino)-4-[(1r,3s)-3-methyl-1-(4-methyl-1,2,4-triazol-3-yl)cyclobutyl]pyridin-2-yl]-3-{[(3S)-3-methylpiperidin-1-yl]methyl}-7H-pyrrolo[3,4-b]pyridin-5-one]
IFN-y 1 nM (Human primary T cells [2]): C (values between 0.10 and 0.30: range “C”) | IFN-y 10 nM (Human primary T cells [2]): B (values between 0.31 and 1.00: range “B;”) | IFN-y 100 nM (Human primary T cells [2]): B (values between 0.31 and 1.00: range “B;”) | IL-2 1 nM (Human primary T cells [3]): D (values between 0.01 and 0.09: range “D.”) | IL-2 10 nM (Human primary T cells [3]): C (values between 0.10 and 0.30: range “C”) | IL-2 100 nM (Human primary T cells [3]): B (values between 0.31 and 0.79: range “B”) | CD69 1 nM (Human primary T cells [4]): C (values between 0.30 and 0.60: range “C”) | CD69 10 nM (Human primary T cells [4]): C (values between 0.30 and 0.60: range “C”) | CD69 100 nM (Human primary T cells [4]): B (values between 0.61 and 0.80: range “B;”)

IC50 [1]: 1 to 5 nM
Structure (SMILES): CCNc1cc(C2(c3nncn3C)CC(C)C2)cc(N2Cc3c(SC)cc(CN4CCC[C@H](C)C4)cc3C2=O)n1 (stereo partly drawn) [Compound 181, 2-[6-(ethylamino)-4-[(1r,3s)-3-methyl-1-(4-methyl-1,2,4-triazol-3-yl)cyclobutyl]pyridin-2-yl]-6-{[(3S)-3-methylpiperidin-1-yl]methyl}-4-(methylsulfanyl)-3H-isoindol-1-one]
IFN-y 1 nM (Human primary T cells [2]): B (values between 0.31 and 1.00: range “B;”) | IFN-y 10 nM (Human primary T cells [2]): B (values between 0.31 and 1.00: range “B;”) | IFN-y 100 nM (Human primary T cells [2]): A (fold over background between 1.10 and 2.00: range “A”) | IL-2 1 nM (Human primary T cells [3]): D (values between 0.01 and 0.09: range “D.”) | IL-2 10 nM (Human primary T cells [3]): C (values between 0.10 and 0.30: range “C”) | IL-2 100 nM (Human primary T cells [3]): A (between 0.80 and 1.40: range “A”) | CD69 1 nM (Human primary T cells [4]): C (values between 0.30 and 0.60: range “C”) | CD69 10 nM (Human primary T cells [4]): B (values between 0.61 and 0.80: range “B;”) | CD69 100 nM (Human primary T cells [4]): X (fold over background values between 1.11 and 1.6: range “X”)

IC50 [1]: 1 to 5 nM
Structure (SMILES): C[C@H]1CCCN(Cc2cc3c(c(C(F)(F)F)c2)CN(c2cc(C4(Cc5nncn5C)COC4)cc(OCCOCCOCCOCCNC(=O)CCN4C(=O)C=CC4=O)n2)C3=O)C1 [Compound 201, 3-(2,5-dioxopyrrol-1-yl)-N-{2-[2-(2-{2-[(4-{3-[(4-methyl-1,2,4-triazol-3-yl)methyl]oxetan-3-yl}-6-(6-{[(3S)-3-methylpiperidin-1-yl]methyl}-1-oxo-4-(trifluoromethyl)-3H-isoindol-2-yl)pyridin-2-yl)oxy]ethoxy}ethoxy)ethoxy]ethyl}propanamide]
IFN-y 1 nM (Human primary T cells [2]): C (values between 0.10 and 0.30: range “C”) | IFN-y 10 nM (Human primary T cells [2]): C (values between 0.10 and 0.30: range “C”) | IFN-y 100 nM (Human primary T cells [2]): C (values between 0.10 and 0.30: range “C”) | IL-2 1 nM (Human primary T cells [3]): C (values between 0.10 and 0.30: range “C”) | IL-2 10 nM (Human primary T cells [3]): C (values between 0.10 and 0.30: range “C”) | IL-2 100 nM (Human primary T cells [3]): C (values between 0.10 and 0.30: range “C”) | CD69 10 nM (Human primary T cells [4]): C (values between 0.30 and 0.60: range “C”) | CD69 100 nM (Human primary T cells [4]): C (values between 0.30 and 0.60: range “C”)
